Source: ChEMBL document CHEMBL1142325, “Discovery of a novel series of biphenyl benzoic acid derivatives as potent and selective human beta3-adrenergic receptor agonists with good oral bioavailability. Part I” (J Med Chem, 2008)

Legend:
[1] = Total clearance in dog at 0.83 mg/kg, iv by cassette assay; assay type: ADME, organism-based, Canis lupus familiaris; design: dose 0.83 mg/kg, route intravenous; settings: in vivo
[2] = Bioavailability in dog at 3.2 mg/kg, po by cassette assay; assay type: ADME, organism-based, Canis lupus familiaris; settings: in vivo
[3] = Terminal half life in monkey at 0.83 mg/kg, iv by cassette assay; assay type: ADME, organism-based, Macaca mulatta; design: dose 0.83 mg/kg, route intravenous; settings: rhesus monkey, in vivo, read-out: beta t1/2 (converted)
[4] = Total clearance in monkey at 0.83 mg/kg, iv by cassette assay; assay type: ADME, organism-based, Macaca mulatta; design: dose 0.83 mg/kg, route intravenous; settings: rhesus monkey, in vivo
[5] = Bioavailability in monkey at 1.0 mg/kg, po by cassette assay; assay type: ADME, organism-based, Macaca mulatta; settings: rhesus monkey, in vivo
[6] = Terminal half life in dog at 0.83 mg/kg, iv by cassette assay; assay type: ADME, organism-based, Canis lupus familiaris; design: dose 0.83 mg/kg, route intravenous; settings: in vivo, read-out: beta t1/2 (converted)
[7] = Cmax in rat at 1.0 mg/kg, po by cassette assay; assay type: ADME, organism-based; design: dose 1 mg/kg, route oral; settings: in vivo
[8] = AUC (0 to 24 hrs) in rat at 1.0 mg/kg, po by cassette assay; assay type: ADME, organism-based; design: time < 24 hr, dose 1 mg/kg, route oral; settings: plasma
[9] = Cmax in dog at 3.2 mg/kg, po by cassette assay; assay type: ADME, organism-based, Canis lupus familiaris; design: dose 3.2 mg/kg, route oral; settings: in vivo
[10] = AUC (0 to 24 hrs) in dog at 3.2 mg/kg, po by cassette assay; assay type: ADME, organism-based, Canis lupus familiaris; design: time < 24 hr, dose 3.2 mg/kg, route oral; settings: plasma
[11] = Cmax in monkey at 1.0 mg/kg, po by cassette assay; assay type: ADME, organism-based, Macaca mulatta; design: dose 1 mg/kg, route oral; settings: rhesus monkey, in vivo
[12] = AUC (0 to 24 hrs) in monkey at 1.0 mg/kg, po by cassette assay; assay type: ADME, organism-based, Macaca mulatta; design: time < 24 hr, dose 1 mg/kg, route oral; settings: rhesus monkey, plasma
[13] = Cmax […] at 1.0 mg/kg, po by cassette assay; assay type: ADME, organism-based; design: dose 1 mg/kg, route oral; settings: in vivo
[14] = AUC (0 to 24 hrs) […] at 1.0 mg/kg, po by cassette assay; assay type: ADME, organism-based; design: time < 24 hr, dose 1 mg/kg, route oral; settings: plasma
[15] = Intrinsic clearance in rat liver microsome; assay type: ADME; settings: liver microsomes
[16] = Intrinsic clearance in dog liver microsome; assay type: ADME, Canis lupus familiaris; settings: liver microsomes
[17] = Intrinsic clearance in human liver microsome; assay type: ADME; settings: liver microsomes
[18] = Terminal half life in rat at 0.83 mg/kg, iv by cassette assay; assay type: ADME, organism-based; design: dose 0.83 mg/kg, route intravenous; settings: in vivo, read-out: beta t1/2 (converted)
[19] = Total clearance in rat at 0.83 mg/kg, iv by cassette assay; assay type: ADME, organism-based; design: dose 0.83 mg/kg, route intravenous; settings: in vivo
[20] = Bioavailability in rat at 1.0 mg/kg, po by cassette assay; assay type: ADME, organism-based; settings: in vivo
[21] = Oral bioavailability in dog; assay type: ADME, organism-based, Canis lupus familiaris; settings: in vivo
[22] = Oral bioavailability in monkey; assay type: ADME, organism-based, Macaca mulatta; settings: rhesus monkey, in vivo
[23] = in vitro; settings: PAMPA, pH 6.5
[24] = Bioavailability in dog at […], po by cassette assay; assay type: ADME, organism-based, Canis lupus familiaris; settings: in vivo
[25] = Cmax in dog at […], po by cassette assay; assay type: ADME, organism-based, Canis lupus familiaris; design: route oral; settings: in vivo
[26] = AUC (0 to 24 hrs) in dog at […], po by cassette assay; assay type: ADME, organism-based, Canis lupus familiaris; design: time < 24 hr, route oral; settings: plasma
[27] = in vivo; settings: dog, iv, 1 mg/mL
[28] = in vivo; settings: dog, iv, 1 mg/mL; remark: listed apart in the source
[29] = in vivo; settings: dog, po, 1 mg/mL
[30] = in vivo; settings: dog, po, 1 mg/mL; remark: listed apart in the source
[31] = in vivo; settings: dog, plasma, po, 1 mg/mL
[32] = tested on: Rhesus monkey; test: Bioavailability in monkey at 0.32 mg/kg, po by cassette assay; assay type: ADME, organism-based, Macaca mulatta; settings: in vivo
[33] = Terminal half life in monkey at 0.186 mg/kg, iv by cassette assay; assay type: ADME, organism-based, Macaca mulatta; design: dose 0.186 mg/kg, route intravenous; settings: rhesus monkey, in vivo, read-out: beta t1/2 (converted)
[34] = Bioavailability in dog at 0.2 mg/kg, po by cassette assay; assay type: ADME, organism-based, Canis lupus familiaris; settings: in vivo
[35] = Cmax in rat at 0.32 mg/kg, po by cassette assay; assay type: ADME, organism-based; design: dose 0.32 mg/kg, route oral; settings: in vivo
[36] = AUC (0 to 24 hrs) in rat at 0.32 mg/kg, po by cassette assay; assay type: ADME, organism-based; design: time < 24 hr, dose 0.32 mg/kg, route oral; settings: plasma
[37] = Cmax in monkey at 0.32 mg/kg, po by cassette assay; assay type: ADME, organism-based, Macaca mulatta; design: dose 0.32 mg/kg, route oral; settings: rhesus monkey, in vivo
[38] = tested on: Rhesus monkey; test: AUC (0 to 24 hrs) in monkey at 0.32 mg/kg, po by cassette assay; assay type: ADME, organism-based, Macaca mulatta, Plasma; design: time < 24 hr, dose 0.32 mg/kg, route oral; settings: in vivo, 24 h
[39] = Cmax in dog at 2.0 mg/kg, po by cassette assay; assay type: ADME, organism-based, Canis lupus familiaris; design: dose 2 mg/kg, route oral; settings: in vivo
[40] = AUC (0 to 24 hrs) in dog at 2.0 mg/kg, po by cassette assay; assay type: ADME, organism-based, Canis lupus familiaris; design: time < 24 hr, dose 2 mg/kg, route oral; settings: plasma
[41] = Intrinsic clearance in monkey liver microsome; assay type: ADME, Macaca mulatta; settings: rhesus monkey, liver microsomes
[42] = Terminal half life in dog at 0.1 mg/kg, iv by cassette assay; assay type: ADME, organism-based, Canis lupus familiaris; design: dose 0.1 mg/kg, route intravenous; settings: in vivo, read-out: beta t1/2 (converted)
[43] = Total clearance in dog at 0.1 mg/kg, iv by cassette assay; assay type: ADME, organism-based, Canis lupus familiaris; design: dose 0.1 mg/kg, route intravenous; settings: in vivo
[44] = Terminal half life in rat at 0.32 mg/kg, iv by cassette assay; assay type: ADME, organism-based; design: dose 0.32 mg/kg, route intravenous; settings: in vivo, read-out: beta t1/2 (converted)
[45] = Total clearance in rat at 0.32 mg/kg, iv by cassette assay; assay type: ADME, organism-based; design: dose 0.32 mg/kg, route intravenous; settings: in vivo
[46] = Bioavailability in rat at 0.32 mg/kg, po by cassette assay; assay type: ADME, organism-based; settings: in vivo

**Q.** What does the source list for `CCOC(=O)COc1ccc2c(c1)C[C@@H](NC[C@H](O)c1cccc(Cl)c1)CCC2`?
**A.** clearance [1]: 3.7 mL/min/kg; bioavailability [2]: 73%; half-life [3]: 2.28 h; clearance [4]: 11.8 mL/min/kg; bioavailability [5]: 35%; half-life [6]: 1.63 h; Cmax [7]: 38 ng/mL; AUC(0-t) at 24 h [8]: 83 ng·h/mL; Cmax [9]: 2070 ng/mL; AUC(0-t) at 24 h [10]: 10600 ng·h/mL; Cmax [11]: 184 ng/mL; AUC(0-t) at 24 h [12]: 398 ng·h/mL; Cmax [13]: 1340 ng/mL; AUC(0-t) at 24 h [14]: 4100 ng·h/mL; CLint scaled [15]: 35.4 mL/min/kg; CLint scaled [16]: 35.4 mL/min/kg; CLint scaled [17]: 18.2 mL/min/kg; half-life [18]: 0.3 h; clearance [19]: 47.9 mL/min/kg; bioavailability [20]: 29%

**Q.** With `O=S(=O)(Nc1ccc(CCNC[C@H](O)c2cccnc2)cc1)c1ccc(-c2nc(-c3ccc(C(F)(F)F)cc3)cs2)cc1` as the compound, how does the bioavailability [21] read?
**A.** 27%

**Q.** And the bioavailability [22]?
**A.** 4%

**Q.** With `O=C(O)c1ccc(-c2ccc(CCNC[C@H](O)c3cccc(Cl)c3)cc2)cc1OC1CCCCC1` as the compound, how does the Papp [23] read?
**A.** > 30 ×10⁻⁶ cm/s

**Q.** For `O=C(O)c1ccc(-c2ccc(CCNC[C@H](O)c3cccc(Cl)c3)cc2)cc1`, which bioavailability [24] is on record?
**A.** > 95%

**Q.** And the Cmax [25]?
**A.** 111 ng/mL

**Q.** What about the AUC(0-t) at 24 h [26] of the same compound?
**A.** 1980 ng·h/mL

**Q.** What about the clearance [27] of the same compound?
**A.** 4 mL/min/kg

**Q.** What about the half-life [28] of the same compound?
**A.** 12.3 h

**Q.** With `O=C(O)c1ccc(Oc2ccc(CCNC[C@H](O)c3cccc(Cl)c3)cc2)cc1` as the compound, how does the clearance [27] read?
**A.** 4.1 mL/min/kg

**Q.** What about the bioavailability [29] of the same compound?
**A.** 40%

**Q.** What about the Cmax [30] of the same compound?
**A.** 236 ng/mL

**Q.** What about the AUC(0-t) at 24 h [31] of the same compound?
**A.** 2470 ng·h/mL

**Q.** And the half-life [28]?
**A.** 6.2 h

**Q.** With `CC(C)Oc1cc(-c2ccc(CCNC[C@H](O)c3ccccc3)cc2)ccc1C(=O)O` as the compound, how does the F [32] read?
**A.** 62%

**Q.** What about the half-life [33] of the same compound?
**A.** 22.2 h

**Q.** What about the bioavailability [34] of the same compound?
**A.** 68%

**Q.** And the Cmax [35]?
**A.** 94.7 ng/mL

**Q.** And the AUC(0-t) at 24 h [36]?
**A.** 565 ng·h/mL

**Q.** What about the Cmax [37] of the same compound?
**A.** 185 ng/mL

**Q.** And the AUC [38]?
**A.** 209 ng·h/mL

**Q.** What about the Cmax [39] of the same compound?
**A.** 25 ng/mL

**Q.** And the AUC(0-t) at 24 h [40]?
**A.** 438 ng·h/mL

**Q.** What about the CLint scaled [41] of the same compound?
**A.** < 1 mL/min/kg

**Q.** And the CLint scaled [17]?
**A.** < 1 mL/min/kg

**Q.** And the half-life [42]?
**A.** 14.5 h

**Q.** And the clearance [43]?
**A.** 4.8 mL/min/kg

**Q.** And the half-life [44]?
**A.** 9.5 h

**Q.** What about the clearance [45] of the same compound?
**A.** 7.5 mL/min/kg

**Q.** And the bioavailability [46]?
**A.** 80%

**Q.** And the Papp [23]?
**A.** 18 ×10⁻⁶ cm/s
